Laboratory results as given in patent publication US5441563A, “Highly insoluble azole embossing inhibitor and the use thereof” (Armstrong World Industries, Inc., priority 1994, dated 1995).

How the values were obtained:
[1] = Stability of dispersions and ink compositions containing the inhibitor; format: physicochemical; settings: sonicated
[2] = as above; format: physicochemical
Procedure: A cationic dispersion of TTA-P was prepared using a quaternary ammonium salt, stearyl dimethylbenzylammonium chloride, (Maquat SC-18, Mason Chemical Co.), as the stabilizer. The product was first diminutized by grinding the coarse powder (TTA-P) for approximately 18 hours in a standard ball mill using a combination of 12 mm diameter spherical and 6 mm diameter×6 mm high cylindrical balls. Approximately 1/2 of the 1 L ball mill volume was filled for the grinding operation. […] The dispersion was then prepared by adding 2.35 parts Maquat SC-18 (85% active) to 37.65 parts deionized water and stirring until dissolved. A total of 40 parts of TTA-P was then added to the surfactant solution in 5 part increments with stirring, followed by agitation with a sonic dismembrator, (Fisher Model 3000). The sonic probe was inserted directly into the suspension and run on the highest setting for 1-2 minutes. A creamy dispersion resulted initially, with viscosity increasing with increasing solids content. The final suspension was a uniform paste with a concentration of 50% by weight solids.
A blue aqueous inhibitor ink was prepared by adding 0.20 parts of CIB 103 Blue Pigment (sold by Penn Color, Inc.) to 20 parts of CIE 94 Extender (sold by Penn Color, Inc.) and stirring to uniform coloration. Then 6.06 parts of the 50% suspension of TTA-P (prepared in Example 4) was then added to the ink mixture and stirred to uniform coloration.
An anionic dispersion paste of TTA-P was prepared with a polyoxyethylene branched nonylphenyl ether phosphate surfactant, (Rhodofac PE-50, Rhone Poulenc). Diminutization of the compound was performed by milling as described in Example 4. Dispersion of the compound was accomplished using the sonic dismembrator, also described in Example 4. Materials were combined in the proportion: 40 parts of deionized water, 2.06 parts of the surfactant and 40 parts of TTA-P. Materials were added in the listed sequence.
The anionic dispersion of TTA-P (Example 6) was added to an anionic ink formulation of Sicpa Corp. The resultant mixture consisted of 20 parts Sicpa Extender 694556, 0.20 parts Sicpa black ink 674554 and 6.06 parts of the 48.7% dispersion of the compound (Example 6).
A portion of BTA-P, the benzotriazole-piperazine derivative, was stably dispersed with the cationic surfactant stearyldimethylbenzylammonium chloride, (Maquat SC-18, Mason Chemical Co.). The compound was milled and dispersed as in Example 4. The materials were combined in the proportion: 20 parts deionized water, 1.18 parts Maquat SC-18, (85% active), and 33.16 parts BTA-P. The materials were added in the listed sequence. […] The paste was 61% by weight of BTA-P.
The cationic dispersion of BTA-P (Example 8) was added to a cationic ink formulation of Penn Color. The mixture consisted of 20 parts Penn Color Extender CIE 94, 0.20 parts Penn Color CIB 103 blue ink and 4.96 parts of the 61% dispersion of BTA-P (Example 8).
A portion of HTTA-P, the hydrogenated tolyltriazolepiperazine derivative, was colloidally dispersed with the cationic surfactant stearyldimethylbenzylammonium chloride, (Maquat SC-18, Mason Chemical Co.). The milling and dispersing procedures of Example 4 were followed. The materials were combined in the proportion: 21 parts deionized water, 1 part Maquat SC-18, (85% active), and 37 parts HTTA-P. The materials were added in the listed sequence. […] The paste was 62.7% by weight of HTTA-P.
The cationic dispersion of HTTA-P (Example 10) was added to a cationic ink formulation of Penn Color. The mixture consisted of 20 parts Extender CIE 94, 0.20 parts CIB 103 blue ink and 4.83 parts of the 62.7% dispersion of HTTA-P (Example 10).
Hitherto, dispersion of these new inhibitors directly into the ink formulation was not considered. The instability problems of other triazole inhibitors seemed to indicate that a surfactant in addition to that found in the ink and extender was required. […]

[3] = Inhibitor activity (IA), depth of chemical embossing and degree of expansion ranked against BTA-P (Table II); design: key to Inhibitor Activity (IA): 1: Excellent; 2: Very Good; 3: Good; 4: Fair; 5: Poor; None; settings: 10% by weight inhibitor in ink; scale 1 to 5, BTA-P benchmark = 1; 7 mil plastisol, 185 °C, 1.9 min
Procedure: Table II sets forth a number of properties of the examples and comparative examples which were made and tested. Most of these compounds were prepared using the direct milling procedure and then evaluated for inhibitor activity, ghosting and embossing definition.
The inhibited inks (at 10% by weight inhibitor concentration) were printed on 7 mils of an expandable plastisol coated onto a glass mat which was saturated with a non-expandable plastisol. This was done on a flat-bed gravure proof press using a 100 line screen step-wedge gravure plate. The steps ranged from a deep shadow tone to a shallow highlight tone. The inks printed and dried without any tack.
The printed samples were coated with 10 mils of a clear plastisol wearlayer and heated for 1.9±0.1 minutes at an air temperature of 185°±2° C. in a Werner. Mathis oven to fuse and expand the foamable plastisol to about 14 mils (a 2:1 blow ratio). The thickness of the printed coated areas (i.e., restricted area) was measured in mils and compared to the thickness of the expanded unprinted surrounding areas. This difference was recorded as depth of chemical embossing and was used along with the degree of expansion in the inhibited area to access the inhibitor activity (IA).
The inhibitor activity of the BTA-P derivative was established as the benchmark and on a scale of 1 to 5 was given a rating of 1 (five on the scale being less than one mil of overall chemical embossing). This is a subjective ranking where the other compounds were evaluated for inhibitor activity by comparing them to BTA-P, both numerically and visually.

physchem = format: physicochemical

Stability of ink mixture ([1]; direct addition to anionic ink): homogenous and stable mixture
Stability of ink mixture ([1]; direct addition to cationic ink): homogenous and stable mixture
Stability of ink mixture ([2]; anionic aqueous ink with anionic dispersion): colloidally stable
Stability of dispersion ([2]; anionic dispersion paste, Rhodofac PE-50): stable, homogenous paste
Stability of ink mixture ([2]; cationic aqueous ink with cationic dispersion): colloidally stable and disperse
Solubility in iPrOH (physchem; 1440 min): 0.204 % BY WT
Solubility in H2O (physchem; water, 24 h): 0.031 % BY WT
Substance: N,N'-bis(tolyltriazol-1-yl methyl) piperazine [TTA-P]
Inhibitor Activity (IA) [3]: 1
